“And” between values parts separate entries of the source, which are not always exact repeats. Identical values can stand only once.
Experiments:
[1] = In vitro metabolism in hepatic microsomes (LC/MS); format: in vitro ADME, rat; details: in the presence of NADPH
Method: (§1) In Vitro Metabolism in Hepatic Microsomes—A compound of structure (I) was incubated for specified times at 37° C. with rat liver microsomes (e.g., 1 mg protein/ml; Sigma-Aldrich, St. Louis, Mo.) in potassium phosphate buffer (100 mM) containing NADPH (0 or 1 mM). The mixture was then chilled on ice, and 0.5 ml of ice-cold ethyl acetate was added. Samples were centrifuged for 15 min at 3,000 rpm, and the supernatant was evaporated to dryness under nitrogen. The residue was dissolved in 150 μl mobile phase (acetonitrile:water 3:1, containing 0.1% formic acid) for LC/MS analysis. Reverse-phase HPLC separations were carried out using a Waters C18 column (2.1×100 mm, […]) equipped with a solvent delivery system (Waters model 2690, Milford, Mass.). The solvent system consisted of a linear gradient from 5 to 95% acetonitrile run over 16 min (0.2 mL/min flow rate). Mass spectra were acquired on an Alliance HT 2790+ZQ mass spectrometer using negative ion detection.
as §1, with “Liquid Chromatography/Mass Spectrometry—Compounds (each at 5 μM) were” for “In Vitro Metabolism in Hepatic Microsomes—A compound of structure (I) was”, “(1” for “(e.g., 1”, “150” for “150 μl”, “detection, scanning from 150 to 1500 Da. The electrospray ion source parameters were as follows: capillary voltage 3.5 kV (positive ion mode), cone voltage 37 V, source temperature 120° C., desolvation temperature 250° C., cone gas flow 25 L/h, and dessolvation gas flow 350 L/h.” for “detection.”
PPQ-102 is a small-molecule inhibitor of CFTR chloride conductance with efficacy in preventing and reversing cyst formation in an organ culture model of PKD (see, e.g., Tradtrantip et al., J. Med. Chem. 2009, supra; Int'l Patent Appl. Publication No. WO 2011/019737). Preliminary analysis of the metabolic stability and aqueous solubility of PPQ-102, indicated poorer metabolic stability and lower water solubility (˜2 μM in albumin-free saline) than desired for optimal drugability. In vitro metabolic stability was determined by compound incubation with hepatic microsomes at 37° C. for specified times in the absence vs. presence of NADPH, following by LC/MS analysis. Shown in FIG. 6A is PPQ-102 disappearance in hepatic microsomes in the presence of NADPH, with ˜60% disappearance in 30 min.

human wildtype CFTR [2] = molecular target: T1, human wildtype CFTR (Homo sapiens, UniProt P13569); test: Short-circuit current analysis of CFTR inhibition in CFTR-expressing FRT cells; format: cell-based; parameters: expressed in transfected cells; host or cells: Fischer rat thyroid (FRT) epithelial cells on Snapwell inserts; details: for inhibition of short-circuit current: 100 nM
T1 sequence (P13569 whole entry): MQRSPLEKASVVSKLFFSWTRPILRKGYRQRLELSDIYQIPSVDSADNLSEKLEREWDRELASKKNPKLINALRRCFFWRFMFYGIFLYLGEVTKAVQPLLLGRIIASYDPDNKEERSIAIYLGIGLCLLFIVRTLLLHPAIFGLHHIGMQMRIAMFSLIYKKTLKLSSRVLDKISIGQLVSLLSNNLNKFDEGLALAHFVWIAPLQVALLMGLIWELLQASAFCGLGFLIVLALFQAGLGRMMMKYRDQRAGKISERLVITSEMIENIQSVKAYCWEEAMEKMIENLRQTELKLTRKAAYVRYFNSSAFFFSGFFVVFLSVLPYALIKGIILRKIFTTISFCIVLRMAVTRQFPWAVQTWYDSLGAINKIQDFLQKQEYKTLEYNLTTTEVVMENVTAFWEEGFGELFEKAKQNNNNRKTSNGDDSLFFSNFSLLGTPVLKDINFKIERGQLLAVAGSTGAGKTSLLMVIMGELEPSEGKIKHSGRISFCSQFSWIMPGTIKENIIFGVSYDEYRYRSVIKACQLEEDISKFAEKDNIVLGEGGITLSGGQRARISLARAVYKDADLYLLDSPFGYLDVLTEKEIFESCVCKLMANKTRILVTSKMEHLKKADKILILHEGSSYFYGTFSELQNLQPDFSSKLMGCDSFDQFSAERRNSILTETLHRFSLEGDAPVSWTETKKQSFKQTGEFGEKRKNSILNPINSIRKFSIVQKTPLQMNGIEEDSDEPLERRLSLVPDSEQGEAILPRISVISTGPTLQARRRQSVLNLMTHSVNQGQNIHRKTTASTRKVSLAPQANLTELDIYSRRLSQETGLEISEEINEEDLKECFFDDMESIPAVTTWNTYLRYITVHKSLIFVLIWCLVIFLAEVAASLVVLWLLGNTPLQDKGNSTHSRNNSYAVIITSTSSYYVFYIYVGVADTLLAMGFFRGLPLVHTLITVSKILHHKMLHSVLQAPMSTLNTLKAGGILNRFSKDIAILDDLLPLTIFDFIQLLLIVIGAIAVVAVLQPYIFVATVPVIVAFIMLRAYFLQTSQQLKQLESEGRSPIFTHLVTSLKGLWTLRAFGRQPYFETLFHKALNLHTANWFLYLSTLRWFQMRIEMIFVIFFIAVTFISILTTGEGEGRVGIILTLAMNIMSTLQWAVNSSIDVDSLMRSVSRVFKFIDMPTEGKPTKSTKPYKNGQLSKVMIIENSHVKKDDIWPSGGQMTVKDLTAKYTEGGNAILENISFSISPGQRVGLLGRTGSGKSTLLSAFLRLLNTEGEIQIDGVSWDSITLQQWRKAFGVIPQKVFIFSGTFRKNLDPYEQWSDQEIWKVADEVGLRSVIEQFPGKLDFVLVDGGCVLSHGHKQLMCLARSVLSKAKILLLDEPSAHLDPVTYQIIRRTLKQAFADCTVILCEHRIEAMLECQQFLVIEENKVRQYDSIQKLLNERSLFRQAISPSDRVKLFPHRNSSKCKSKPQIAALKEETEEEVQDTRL
Method: Short-Circuit Current—Snapwell inserts containing CFTR-expressing FRT cells were mounted in an Ussing chamber. The hemichambers contained 5 mL of buffer containing 75 mM NaCl and 75 mM Na gluconate (apical) and 150 mM NaCl (basolateral) (pH 7.3), and the basolateral membrane was permeabilized with 250 μg/mL amphotericin B, as described (see, e.g., Sonawane et al., FASEB J 2006, supra). Short-circuit current was recorded continuously using a DVC-1000 voltage clamp (World Precision Instruments) using Ag/AgCl electrodes and 3 M KCl agar bridges.
Current was measured in CFTR-expressing FRT cells in which the basolateral membrane was permeabilized and in the presence of a transepithelial chloride concentration gradient, so that current is a quantitative linear measure of CFTR function. CFTR was activated by forskolin, followed by serial additions of increasing concentrations of test compounds.
CFTR inhibition potency was measured by short-circuit current analysis in FRT epithelial cells expressing human CFTR in presence of a transepithelial chloride gradient and in which the basolateral membrane was permeabilized with amphotericin B. Under these conditions short-circuit current is proportional to CFTR chloride conductance.

human wildtype CFTR [3] = molecular target: T1, human wildtype CFTR; test: Fluorescence plate reader assay of CFTR inhibition (iodide influx); format: cell-based; parameters: expressed in transfected cells; host or cells: Fischer rat thyroid (FRT) cells; details: Determined by micro-plate reader assay; FRT cells co-expressing human wild type CFTR and YFP-H148Q
Method: Cell Culture and Plate Reader Assay of CFTR Inhibition—Fischer rat thyroid (FRT) cells co-expressing human wild type CFTR and the halide indicator YFP-H148Q were cultured in 96-well black-walled microplates (Corning Costar) at a density of 20,000 cells per well in Coon's modified F12 medium containing 10% fetal bovine serum, 2 mM L-glutamine, 100 U/mL penicillin and 100 μg/mL streptomycin. CFTR chloride conductance was assayed at 48 h after plating on a FluoStar fluorescence plate reader (BMG Lab Technologies) as described (see, e.g., Ma et al., J Clin Invest. 2002, supra). Each well was washed 3 times with PBS, leaving 60 μL PBS. Test compounds were added and incubated with the cells for 45 min. Then, 5 μL of a CFTR-activating cocktail (10 μM forskolin, 100 μM IBMX, 20 μM apigenin in PBS) was added. After 15 min, each well was assayed for iodide influx by recording fluorescence continuously (200 ms per point) for 2 s (baseline) and then for 10 s after rapid addition of 160 μL of isosmolar PBS in which 137 mM chloride was replaced by iodide. The initial rate of iodide influx was computed from fluorescence data by non-linear regression.
Initial testing of the compounds for the capability to inhibit CFTR was performed using a plate-reader assay in which iodide influx was measured in FRT cells co-expressing human wild type CFTR and the iodide-sensing yellow fluorescent protein YFP-H148Q/1152L. […] Table B below provides IC50 values for PPQ and BPO compounds.
The relative IC50 values obtained from the plate reader assay are useful for comparisons. Absolute IC50 values obtained from the plate-reader assay are approximate, generally underestimating compound potency because of assay non-linearities, pH-dependent YFP fluorescence, the use of iodide instead of chloride, and compound dilution at the start of the assay (see, e.g., Galietta et al., Am. J. Physiol. Cell Physiol. 281:C1734-42 (2001)).

[4] = short-circuit current, FRT cells expressing human CFTR, forskolin-stimulated, read-out: IC50 for inhibition of CFTR chloride conductance
[5] = Determined by short-circuit current assay, read-out: IC50 (μM)^B

Row | Structure (SMILES) | metabolic stability in hepatic microsomes (in words) [1] | inhibition of short-circuit current (human wildtype CFTR [2]) | IC50 (human wildtype CFTR [2]; [4]) | inhibition of CFTR chloride conductance (in words) (human wildtype CFTR [2]; short-circuit current) | IC50 (human wildtype CFTR [3]) [µM] | IC50 (human wildtype CFTR [2]; [5]) [µM]
1 | Cn1c(=O)c2c(-c3ccccc3)n3c(c2n(C)c1=O)[C@H](c1ccc(Br)o1)Oc1ccc(C(=O)O)cc1-3 (single isomer, unassigned) [(R)-BPO-27, 6R-(5-Bromofuran-2-yl)-7,9-dimethyl-8,10-dioxo-11-phenyl-7,8,9,10-tetrahydro-6H-benzo[b]pyrimido [4′,5′:3,4]pyrrolo [1,2-d][1,4]oxazine-2-carboxylic acid] | little metabolism | completed inhibited current | 0.004 µM and ~0.004 µM | – | – | –
2 | Cn1c(=O)c2c(-c3ccccc3)n3c(c2n(C)c1=O)[C@@H](c1ccc(Br)o1)Oc1ccc(C(=O)O)cc1-3 (single isomer, unassigned) [(S)-BPO-27, 6S-(5-Bromofuran-2-yl)-7,9-dimethyl-8,10-dioxo-11-phenyl-7,8,9,10-tetrahydro-6H-benzo[b]pyrimido [4′,5′:3,4]pyrrolo [1,2-d][1,4]oxazine-2-carboxylic acid] | little metabolism | no significant inhibition | ~0.004 µM | inactive | – | –
3 | Cn1c(=O)c2c(-c3ccccc3)n3c(c2n(C)c1=O)C(c1ccc(Br)o1)Oc1ccccc1-3 (stereo not shown) [BPO-16, 6-(5-Bromofuran-2-yl)-7,9-dimethyl-11-phenyl-6H-benzo[b]pyrimido[4′,5′-3,4]pyrrolo[1,2-d]oxazine-8,10-(7H,9H)-dione] | better stability than PPQ-102 | – | – | – | 0.2 | 0.09
4 | Cn1c(=O)c2c(-c3ccccc3)n3c(c2n(C)c1=O)C(c1ccc(Br)o1)Oc1ccc([N+](=O)[O-])cc1-3 (stereo not shown) [BPO-21, 6-(5-bromofuran-2-yl)-7,9-Dimethyl-2-nitro-11-phenyl-6H-benzo[b]pyrimido[4′,5′-3,4]pyrrolo[1,2-d]oxazine-8,10-(7H,9H)-dione] | excellent metabolic stability | – | – | substantially greater CFTR inhibition potency | 0.12 | 0.025
5 | Cn1c(=O)c2c(-c3ccccc3)n3c(c2n(C)c1=O)C(c1ccc(Br)o1)Nc1ccccc1-3 (stereo not shown) [PPQ-10, 6-(5-Bromofuran-2-yl)-7,9-dimethyl-11-phenyl-5,6-dihydropyrimido[4′,5′-3,4]pyrrolo[1,2-a]quinoxaline-8,10-(7H,9H)-dione] | substantially more stable than PPQ-102 | – | – | – | 0.09 | 0.05
6 | Cn1c(=O)c2c(-c3ccccc3)n3c(c2n(C)c1=O)C(c1ccc(I)o1)Nc1ccccc1-3 (stereo not shown) [PPQ-11, 7,9-Dimethyl-6-(5-iodofuran-2-yl)-11-phenyl-5,6-dihydropyrimido[4′,5′-3,4]pyrrolo[1,2-a]quinoxaline-8,10-(7H,9H)-dione] | – | – | – | – | 0.17 | 0.1

From patent publication USRE48842E1, “Pyrimido-pyrrolo-oxazine-dione compound inhibitors of the cystic fibrosis transmembrane conductance regulator protein and uses therefor” (The Regents of the University of California, priority 2011, dated 2021)
